# Measured values as given in US5721210A, “Cyclic cell adhesion modulation compounds” (priority 1995, dated 1998).
# Where two headings read alike, the source gives them in different places. Bridge positions count the residues as written; N and C are the ends. Square brackets hold non-standard residues; d marks the D form. Peptide text beside a SMILES is read from it. * marks the point of attachment. Acetyl(1-adamantyl) = O=C(CC12CC3CC(CC(C3)C1)C2)*; 2Thi = N[C@@H](Cc1cccs1)C(=O)O; 4Amb = NCc1ccc(C(=O)O)cc1
# How the values were obtained:
# [1] = test system: U937 cells (fibronectin receptor) adhering to fibronectin-coated wells
# [2] = test system: Jurkat T-cells adhering to IL-1 stimulated human umbilical vein endothelial cell monolayers; assay: Jurkat-endothelial cell adhesion assay (Cell Adhesion Inhibition Assay II); format: cell-based; conditions: for 10 μM% (percentage inhibition at 10 μM): 10 μM peptide; for 10 μM% (percentage inhibition at 10 μM) / 200 μM% (percentage inhibition at 200 μM): Jurkat cells on IL-1 stimulated endothelial monolayers, 20 min at 37° C.; for 200 μM% (percentage inhibition at 200 μM): 200 μM peptide
# Experimental: The following assay established the activity of the present compound in inhibiting cell-cell adhesion in a representative in vitro system. This assay measures the adhesive interactions of T-cells to endothelial cell monolayers in the presence of a test compound. The test compound is added in increasing concentrations with T-cells and this is added to endothelial cell monolayers. The plates are incubated, washed and the percentage of attached cells is quantitated.
# Human umbilical vein endothelial cells were purchased from Clonetics (San Diego, Calif.) at passage number 2. The cells were grown on 0.5% porcine skin gelatin pre-coated flasks (Sigma, St. Louis, Mo.) in EGM-UV media (Clonetics, San Diego, Calif.) supplemented with 10% fetal bovine serum. Cells were refed every 2-3 days reaching confluence by day 4 to 6. […] The endothelial cells were not used following passage 14-15.
# The T-cell line Jurkat was obtained from American Type Tissue Culture Collection (Rockville, Md.). The cells were cultured in RPMI media containing 10% fetal calf serum. The cells were washed twice with Hank's Balanced Salt Solution (HBSS) and resuspended in Dulbecco's […] Eagle's Media (DMEM) containing 2.5 mg/ml Human Serum Albumin (HSA). The Jurkat cells (1×10^6 cells/ml) were stained with 10 μg/ml fluorescein diacetate (Sigma, St. Louis, Mo.) in HSSS containing 5% fetal calf serum. The cells were stained for 15 minutes in the dark at room temperature, washed 2 times, and resuspended in a DMEM-HSA solution.
# Confluent endothelial monolayers grown in 96-well tissue culture plates were stimulated for 4 hours at 37° C. with 0.1 ng/ml (^~ 50 U/ml) recombinant IL-1 (Amgen, Thousand Oaks, Calif.). Following this incubation, the monolayers were washed twice with HBSS and 0.1 ml of DMEM-HSA solution was added. Jurkat cells (5×10^5 cells) were combined with appropriate concentrations of a peptide to be tested and 0.1 ml of the Jurkat-peptide mixture were added to the endothelial cell monolayers. Generally, 200 and 10 μM peptide concentrations were tested. […] The plates were placed on ice for 5 minutes to allow for Jurkat cell settling and then incubated at 37° C. for 20 minutes. Following this incubation, the monolayers were washed twice with PBS containing 1 mM calcium chloride and 1 mM magnesium chloride and the plates were read using a Pandex Fluorescence Concentration Analyzer (Baxter, Mundelein, Ill.). Fluorescence in each well was measured as arbitrary fluorescence units and percent adhesion in the absence of a peptide was adjusted to 100% and the percentage adhesion in the presence of the peptide was calculated. Monolayers were also fixed in 3% paraformaldehyde and evaluated microscopically to verify adhesion.
# [3] = read-out: IC50 μM, U937 cells on fibronectin-coated wells, 60 min at 37° C., concentration at which adhesion is inhibited to 50% of control
Compound,"IC50 [1, 3] [µM]",also measured
"N=C(N)NCCC[C@@H]1NC(=O)CNC(=O)C[C@@H](C(N)=O)NC(=O)[C@@H]2CCCN2C(=O)[C@H](CO)NC(=O)[C@H](CC(=O)O)NC(=O)CNC1=O [Peptide 22, G*RGDSPD*-NH2] (GRGDSPD-NH2; lactam N-7)",112,–
"N=C(N)NCCC[C@H](N)C(=O)N[C@H]1CSSC[C@@H](C(=O)O)NC(=O)[C@H](Cc2cccs2)NC(=O)[C@H](CC(=O)O)NC1=O [Peptide 101, RC*D(TA)C*] (H-RCD[2Thi]C-OH; disulfide 2-5)",258,–
(CPA)-RC*D-(3-thioPro)C* [Peptide 110],8,–
(1-FCA)RC*D(TTC)C* [Peptide 132],92,–
"N=C(N)NCCC[C@@H]1NC(=O)CNC(=O)C[C@@H](C(N)=O)NC(=O)[C@@H]2CCCN2C(=O)[C@H](CO)NC(=O)[C@H](CC(=O)O)NC(=O)CNC1=O [Peptide 47, G*RGDSPD*-NH2] (GRGDSPD-NH2; lactam N-7)",134,–
N=C(N)NCCC[C@@H]1NC(=O)c2ccc(cc2)CNC(=O)[C@H](CC(=O)O)NC(=O)CNC1=O (cyclo(RGD[4Amb])),–,IC50 [1]: 251 µM
RC*D(TTC)C* [Peptide 122],6,–
"N=C(N)NCCC[C@@H]1NC(=O)[C@@H](N)CSSC[C@@H](C(=O)O)NC(=O)[C@H](Cc2cccs2)NC(=O)[C@H](CC(=O)O)NC(=O)CNC1=O [Peptide 70, C*RGD(TA)C*] (H-CRGD[2Thi]C-OH; disulfide 1-6)",190,–
(FMOC)-RC*(DTC)C* [Peptide 156],–,10 μM% (percentage inhibition at 10 μM) [2]: 90%; 200 μM% (percentage inhibition at 200 μM) [2]: 32%
(FMOC)-RC*D(TTC)C* [Peptide 166],–,"10 μM% (percentage inhibition at 10 μM) [2]: 18%; 200 μM% (percentage inhibition at 200 μM) [2]: 11%; IC50 ([2]; Jurkat-endothelial cell adhesion, peptides tested at 200, 40, 8, 1.6, 0.32, 0.064 μM): 0.9 µM"
"COc1ccc(C[C@@H]2NC(=O)[C@H](CC(=O)O)NC(=O)CNC(=O)[C@H](CCCNC(=N)N)NC(=O)[C@@H](NC(=O)CNC(=O)CNC(=O)CC34CC5CC(CC(C5)C3)C4)CSSC[C@@H](C(N)=O)NC(=O)[C@@H]3CCCN3C2=O)cc1 [Peptide 96, (Ada)-GGC*RGDY(p-OCH3 -Tyr)PC*-NH2] ({Acetyl(1-adamantyl)}-GGCRGDY(Me)PC-NH2; disulfide 3-9)",9,–
